These results are taken from US20180186877A1 (NATIONAL CEREBRAL AND CARDIOVASCULAR CENTER, priority 2013, published 2018).

In one test the test system is human blood plasma. As to the kind of experiment: Recalcification blood coagulation test with procyanidin. In kind it is biochemical. Here is the method:
An anti-blood coagulation effect yielded by procyanidin was confirmed by the recalcification blood coagulation test. […] Thereafter, as in Example 8, human blood plasma and Ca2+ were added to the test tube, and the coagulation time was measured. Then, the coagulation time of the test tube to which no procyanidin was added, was also measured in a similar manner. Furthermore, the coagulation time of the test tube to which no recombinant LOX-1 protein was added, was also measured in a similar manner.

Test [1] deals with binding of LOX-1 to oxidized LDL (Homo sapiens, UniProt P78380). The settings on record: Nishizuka et al. 2011; cited from earlier work.

Turning to procyanidin, the coagulation time result with human blood plasma (1 μg/mL procyanidin added to blood plasma alone, no LOX-1) is on record as “no influence”; with human blood plasma (1 μg/mL procyanidin with 1 μg/mL LOX-1 and blood plasma, significance less than 5%), “reduction of the coagulation time was suppressed”. Moreover, the “inhibition of binding of LOX-1 to oxidized LDL” value in test [1] is “inhibits”.
